Values joined by “and” are separate entries in the source; they are usually repeats but may differ in a detail not shown here. Identical values can stand only once.
How the values were obtained:
[1] = Further sandalwood analogues: CH4 per bottle, compound in DMSO or ETOH (Example 7, Table 15); type: cell-based; conditions: for CH4: single bottles rep a, b, c, listed as Javanol batch no. 9000699712
Experimental: (§1) Further testing of sandalwood analogues was conducted following the protocols described in Examples 3 and 5.

[2] = Further sandalwood analogues: volatile fatty acid and methane production (Example 7, Table 14); type: cell-based
Experimental: as §1

[3] = system: rumen contents in Rusitec; test: Rusitec with Sandalwood oil and Javanol (Example 5); type: cell-based, cattle; conditions: 100 μg/ml
Experimental: The rumen-simulation technique (Rusitec) was used as described by Czerkawski and Breckenridge (1977). The nominal volume in each reaction vessel was 850 ml and the dilution rate was set at 0.88 per day, the infused liquid being artificial saliva (McDougall, Biochem J 1948 43, 99-109) at pH 8.4. Inocula for the fermentation vessels were obtained from a pooled sample (liquid and particulate rumen contents) from three rumen-cannulated cattle fed on a conserved diet. On the first day of the experiment 300 ml of strained rumen fluid, 300 ml of water and 300 ml of artificial saliva were placed in each reaction vessel. Solid rumen contents (80 g) were weighed into a nylon bag and one of these was placed inside the food container in each vessel together with a bag (20 g/d) of a basal diet of grass hay, barley, molasses, soyabean meal and a vitamin and mineral mixture. The food was provided in nylon bags, pore size 50 μm, which were gently agitated in the liquid phase. Two bags were present at any time and one bag was replaced each day to give a 48 h incubation. The bags that were removed from the vessels were placed in plastic bags, and their contents washed and squeezed with 40 ml of artificial saliva. This was done twice for each bag, and the combined washings were poured back into the reaction vessels. Fermentation vessels were flushed with anaerobic grade CO2 before filling, after filling, and then every day during feeding (when the nylon bags with the food were changed). The duration of the experiment was 19 days, during which four vessels received Sandalwood oil (added the basal diet to reach an initial concentration of 100 μg/ml) four vessels received Javanol (added the basal diet to reach an initial concentration of 100 μg/ml) the remaining vessels were controls. Volatile fatty acids, methane and bacterial numbers were measured on days 18 and 19 of the experiment. On day 19, Listeria inocula was added and it numbers traced over the last 24 hr of the experiment.

[4] = system: rumen fluid; test: Methane production by buffered rumen fluid, sandalwood oil and synthetic replacements (Example 4); type: cell-based, cow; conditions: 5, 50 or 100 or 500 pg/ml; 16 hours
Experimental: Thirty ml of a 33% buffered solution of rumen fluid withdrawn from a rumen canulated cow was incubated with 0.3 g of a 50:50 hay barley mix at 39° C. under anaerobic conditions
After 16 hours the volume of gas produced and the percentage of methane in the headspace was measured and the resultant fermentation fluid was analysed for volatile fatty acids by HPLC.
Sandalwood oil from either Fluka or SAFC and two different batches of Javanol (Givaudan) or a single batch of Santaliff (International Flavors & Fragrances) (both Javanol and Santaliff are artifical Sandalwood replacements) were added in the amount of 5, 50 or 100 or 500 pg/ml to the 30 ml buffered solution of rumen fluid prior to incubation.

[5] = system: Listeria monocytogenes; test: Listeria survival in Rusitec (Example 5); type: cell-based; conditions: 100 μg/ml; 24h after pathogen addition
Experimental: Volatile fatty acids, methane and bacterial numbers were measured on days 18 and 19 of the experiment. On day 19, Listeria inocula was added and it numbers traced over the last 24 hr of the experiment.

Structure (SMILES): CC1(CO)CC1CC1CC2CC2(C)C1(C)C (stereo not shown) [Javanol, (1-Methyl-2-(1,2,2-trimethylbicyclo[3.1.0]hex-3-ylmethyl)cyclopropyl)methanol]
- CH4 (mean of rep a-c) ([1]; 150 ug/30 ml in 200 ul DMSO): 913.6635 µmol/g
- CH4 ([1]; 150 ug/30 ml in 200 ul DMSO): 956.9591 µmol/g and 888.4071 µmol/g and 895.6242 µmol/g
- CH4 (mean of rep a-c) ([1]; 150 ug/30 ml in 200 ul ETOH): 1373.522 µmol/g
- CH4 ([1]; 150 ug/30 ml in 200 ul ETOH): 1403.051 µmol/g and 1381.609 µmol/g and 1335.905 µmol/g
- CH4 (mean of rep a-c) ([1]; 15000 ug/30 ml in 200 ul DMSO): 605.2838 µmol/g
- CH4 ([1]; 15000 ug/30 ml in 200 ul DMSO): 647.283 µmol/g and 563.0216 µmol/g and 605.5467 µmol/g
- CH4 (mean of rep a-c) ([1]; 15000 ug/30 ml in 200 ul ETOH): 1158.255 µmol/g
- CH4 ([1]; 15000 ug/30 ml in 200 ul ETOH): 1145.346 µmol/g and 1230.103 µmol/g and 1099.314 µmol/g
- Acetate ([2]; 5 μg/ml): 2401 μmol/g of feed added
- Butyrate ([2]; 5 μg/ml): 538 μmol/g of feed added
- Methane ([2]; 5 μg/ml): 978 μmol/g of feed added
- Propionate ([2]; 5 μg/ml): 493 μmol/g of feed added
- TVFA ([2]; 5 μg/ml): 3432 μmol/g of feed added
- Acetate ([2]; 50 μg/ml): 2622 μmol/g of feed added
- Butyrate ([2]; 50 μg/ml): 593 μmol/g of feed added
- Methane ([2]; 50 μg/ml): 904 μmol/g of feed added
- Propionate ([2]; 50 μg/ml): 524 μmol/g of feed added
- TVFA ([2]; 50 μg/ml): 3739 μmol/g of feed added
- Acetate ([2]; 100 μg/ml): 2504 μmol/g of feed added
- Butyrate ([2]; 100 μg/ml): 499 μmol/g of feed added
- Methane ([2]; 100 μg/ml): 859 μmol/g of feed added
- Propionate ([2]; 100 μg/ml): 542 μmol/g of feed added
- TVFA ([2]; 100 μg/ml): 3545 μmol/g of feed added
- Acetate ([2]; 500 μg/ml): 2045 μmol/g of feed added
- Butyrate ([2]; 500 μg/ml): 229 μmol/g of feed added
- Methane ([2]; 500 μg/ml): 744 μmol/g of feed added
- Propionate ([2]; 500 μg/ml): 833 μmol/g of feed added
- TVFA ([2]; 500 μg/ml): 3107 μmol/g of feed added
- 48 h DM degradation (%) [3]: 33.6%
- Acetate [3]: 23.9 mmol/day
- Bacteria counts Cellulolytic [3]: 1.9e+06 mL⁻¹
- Bacteria counts Total [3]: 4.9e+09 mL⁻¹
- Butyrate [3]: 4.4 mmol/day
- Methane production [3]: decreased
- Propionate [3]: 16.7 mmol/day
- Total VFA [3]: 45.0 mmol/day
- VFA production [3]: no effect
- CH4 ([3]; days 18 and 19): 2.51 mmol/day
- methane compared to the control experiments [4]: significantly decreased
- Listeria monocytogenes survival [5]: not

From patent US20110165277A1, “Biological Materials and Uses Thereof” (priority 2008, published 2011)
